Read-outs that look alike come from different tables or passages of the source.
Tests used:
[1] = tested on: GSTA4; experiment: qPCR gene expression in Hepa1c1c-7 cells: GSTA4; type: cell-based, mouse; details: 1 μM, 48 h, Hepa-1c1c7 cells
Protocol: (§1) Hepa1c1c-7 cells were treated with STCs (1 μM) for 48 h, and the total RNA was isolated using QIAzol®lysis reagent (Qiagen, Germany). Next, cDNA was synthesised using the ReverTra Ace® qPCR RT Master Mix Kit (Toyobo Research Reagents, Osaka, Japan). Quantitative PCR was performed using THUNDERBIRD^TM Next SYBR® qPCR Mix (Toyobo Research Reagents, Osaka, Japan) in CFX96 Touch Real-Time PCR Detection System (Bio-Rad Laboratories, San Jose, CA, USA). The genes tested and the respective primers (purchased from Integrated DNA Technologies, Coralville, IA, USA) used in the study are shown in Table 1. β-actin was used as a reference gene for the normalisation of target gene expression. The 2^−ΔΔCt method was used to measure the relative expression of target genes.

[2] = tested on: NAD(P)H quinone oxidoreductase 1 (NQO1); experiment: Prochaska microtiter plate bioassay, NQO1 induction in Hepa-1c1c7 cells; type: cell-based, mouse
Protocol: The effect of shogaol thiophene compounds (STCs) on NRF2 activation is determined by measuring the NAD(P)H quinone oxidoreductase 1 (NQO1) inducer activity, as reported in our previous studies. The mouse hepatoma cells (Hepa-1c1c7, 1 × 10^4 per well) were incubated with STCs (10, 1, 0.1, 0.01, and 0.001 µM) for 48 h. The cells were lysed using digitonin (0.8 mg/mL and 2 mM EDTA; Acros, UK), and the protein concentration was determined using Bradford’s assay kit (Thermo Fisher Scientific, USA). The cell lysate was incubated with a reaction mixture of 0.5 M Tris-Cl buffer (Calbiochem, USA), 7.5 mM FAD (Acros, UK), 150 mM glucose-6-phosphate (Calbiochem, San Diego, CA, USA), 2 U/mL glucose-6-phosphate dehydrogenase (Calbiochem, USA), 50 mM NADP+ (Sigma Aldrich, USA), 25 mM menadione (Sigma Aldrich, USA), and 0.7 mM MTT (Sigma Aldrich, USA) at 37 °C for 5 min. The absorbance was recorded at 610 nm using a microplate reader (Spectramax M3, Molecular Devices, San Jose, CA, USA), and the values were normalised to the total protein content.

[3] = Liver microsomal stability, mouse; type: in vitro ADME; details: mouse liver microsomes, 1 μM (verapamil 0.5 μM)
Protocol: (§2) The liver microsomes of humans, rats, and mice were purchased from Merck (human, #M0567; rat, #M9066; mouse, #M9441). The metabolic stability of 6-shogaol and STCs (1 μM effective concentration; 5 μL) was mixed with liver microsomes (0.5 mg mL^−1; 445 μL) in a microcentrifuge tube. Verapamil (0.5 μM) was used as the positive control. The microsome and compound mixture were shaken on a plate shaker for 5 min to ensure homogeneity. NADPH (1 mM; 50 μL) was added to the mixture to start the metabolic reaction. The reaction mixture was incubated at 37 °C for 0, 3, 6, 15, 30, 45, and 60 min. The mixture (20 μL) was sampled and quenched with 180 μL of acetonitrile with internal standard (Donepezil 50 ng/mL) to terminate the metabolic reaction at each time point. Ultrapure water (80 μL) was added, and contents in the microcentrifuge tubes were centrifuged at 3800 rpm at 4 °C for 10 min. […] Each set of experiments was repeated three times in human, rat, and mouse liver microsomes. The concentration of the compounds versus time was plotted to determine the elimination rate constant (Kel). The intrinsic clearance (Clint) and half-life (t1/2) were calculated using the following equations.

[4] = tested on: GCLC; experiment: qPCR gene expression in Hepa1c1c-7 cells: GCLC; type: cell-based, mouse; details: 1 μM, 48 h, Hepa-1c1c7 cells
Protocol: as §1

[5] = tested on: HMOX1; experiment: qPCR gene expression in Hepa1c1c-7 cells: HMOX1; type: cell-based, mouse; details: 1 μM, 48 h, Hepa-1c1c7 cells
Protocol: as §1

[6] = tested on: TXNRD1; experiment: qPCR gene expression in Hepa1c1c-7 cells: TXNRD1; type: cell-based, mouse; details: 1 μM, 48 h, Hepa-1c1c7 cells
Protocol: as §1

[7] = tested on: GSTP1; experiment: qPCR gene expression in Hepa1c1c-7 cells: GSTP1; type: cell-based, mouse; details: 1 μM, 48 h, Hepa-1c1c7 cells
Protocol: as §1

[8] = tested on: GCLM; experiment: qPCR gene expression in Hepa1c1c-7 cells: GCLM; type: cell-based, mouse; details: 1 μM, 48 h, Hepa-1c1c7 cells
Protocol: as §1

[9] = tested on: NRF2; experiment: qPCR gene expression in Hepa1c1c-7 cells: NRF2; type: cell-based, mouse; details: 1 μM, 48 h, Hepa-1c1c7 cells
Protocol: as §1

[10] = tested on: GSTM2; experiment: qPCR gene expression in Hepa1c1c-7 cells: GSTM2; type: cell-based, mouse; details: 1 μM, 48 h, Hepa-1c1c7 cells
Protocol: as §1

[11] = Liver microsomal stability, human; type: in vitro ADME; details: for Clint / half-life at 1 μM: human liver microsomes, 1 μM (verapamil 0.5 μM)
Protocol: as §2

[12] = Vybrant MTT cytotoxicity assay in BV-2 cells together with LPSEc; type: cell-based; details: mouse, BV-2 microglial cells, BV-2 cells plus LPSEc 200 ng/mL, read-out: cell viability
Protocol: (§3) The safe dose of the test compounds on murine hepatoma (Hepa1c1c-7) and mouse microglial cells (BV-2) was assessed by determining their cytotoxicity using Vybrant® MTT Cell Proliferation Assay Kit (Thermo Fisher Scientific, USA) following the manufacturer’s protocol. In the case of BV-2 cells, the cytotoxicity of the test compounds was assessed together with E. coli lipopolysaccharide (LPSEc), 200 ng/mL. The cell density was 5 × 10^5 cells/well (in a 96-well plate), and they were preincubated for 24 h. The test compounds (10, 5, 2.5, 1.25, and 0.625 μM) were then added to each well (in triplicate) and incubated for another 24 h. The solution’s absorbance was measured using Spectramax (Molecular Devices, San Jose, California, USA) M3 microplate reader. The cell viability was calculated using the following formula, and the results are presented as mean ± SD. Percent cell viability %=Atreated cells−Ablank /Auntreated cells−Ablank×100%

[13] = Vybrant MTT cytotoxicity assay in Hepa-1c1c7 cells; type: cell-based; details: mouse, read-out: cell viability
Protocol: as §3

Row | Compound | GSTA4 gene expression foldchange (compared to control) [1] | Clint [3] [mL/min/g liver] | half-life at 1 μM [3] [min] | GCLC gene expression foldchange (compared to control) [4] | HMOX1 gene expression foldchange (compared to control) [5] | TXNRD1 gene expression foldchange (compared to control) [6] | GSTP1 gene expression foldchange (compared to control) [7] | GCLM gene expression foldchange (compared to control) [8] | NRF2 gene expression foldchange (compared to control) [9] | GSTM2 gene expression foldchange (compared to control) [10] | Clint [11] [mL/min/g liver] | half-life at 1 μM [11] [min] | concentration toxic to the cells in the NQO1 assay ([2]; Hepa-1c1c7 cells) | also measured
1 | COc1cc(CCC(=O)/C=C/c2cc(-c3ccccc3)cs2)ccc1O [STC5, (E)-5-(4-Hydroxy-3-methoxyphenyl)-1-(4-phenylthiophen-2-yl)pent-1-en-3-one] | 2.52 ± 0.03 | 6.42 ± 1.52 | 11.3 | 2.31 ± 0.05 | 3.01 ± 0.10 | 2.52 ± 0.06 | 3.71 ± 0.09 | 3.91 ± 0.09 | 3.21 ± 0.08 | 3.19 ± 0.05 | 5.09 ± 0.98 | 14.3 | – | times more potent than 6-shogaol (NRF2 activation) ([2]; versus 6-shogaol): 65 times; half-life in liver microsomes, times longer than that of 6-shogaol ([11]; liver microsomes, species not stated, versus 6-shogaol): about 1.5 times
2 | CCCCC/C=C/C(=O)CCc1ccc(O)c(OC)c1 [6-shogaol, reference compound] | 1.53 ± 0.02 | 14.32 ± 1.51 | 5.08 | 1.20 ± 0.05 | 1.34 ± 0.05 | 1.20 ± 0.08 | 2.12 ± 0.09 | 2.28 ± 0.10 | 1.26 ± 0.05 | 1.19 ± 0.05 | 7.56 ± 1.24 | 9.63 | 10 µM | viability at 24 h, 5 µM ([12]; concentrations ≥ 5 μM): < 90%; EC (2-fold NQO1 induction) ([2]; Mus musculus, Hepa-1c1c7, 48 h, Hepa-1c1c7 cells, 48 h, read-out: CD (concentration required to double the NQO1 level)): 4.12 ± 0.52 µM; viability at 24 h ([13]; Hepa-1c1c7 cells, 5 and 10 μM): < 90%
3 | COc1cc(CCC(=O)/C=C/c2ccc([N+](=O)[O-])s2)ccc1O [STC8, (E)-5-(4-Hydroxy-3-methoxyphenyl)-1-(5-nitrothiophen-2-yl)pent-1-en-3-one] | – | 11.26 ± 2.69 | 6.46 | – | – | – | – | – | – | – | 6.95 ± 1.52 | 10.5 | greater than 1 μM | viability at 24 h, 2.5 µM ([12]; concentrations ≥ 2.5 μM): < 90%; CD (concentration required to double the NQO1 level) ([2]; Hepa-1c1c7 cells, 48 h): did not show the CD value; viability at 24 h ([13]; Hepa-1c1c7 cells, 2.5, 5 and 10 μM): < 90%
